According to US20050209157A1, “Short bioactive peptides and methods for their use” (priority 2001, published 2005):
Converted amounts (≈) assume the structure as drawn. No end group written: not given here.

Key:
[1] = test system: Candida albicans ATCC 10231; assay: Antimicrobial assay I, modified protocol (tryptic soy broth), MFC; conditions: minimum fungicidal concentration, Table 4
[2] = test system: Stapholococcus aureus ATCC 25923; assay: Antimicrobial assay I, modified protocol (tryptic soy broth), MBC; conditions: minimum bactericidal concentration, Table 4
[3] = test system: Pseudomonas aeruginosa ATCC 27853; assay: as above; conditions: minimum bactericidal concentration, Table 4
Method: The preparation of all media, stock solutions, and dilutions took place in a laminar flow hood to prevent contamination. Bacterial cells were freshly grown on antibiotic medium 2 agar slants (pH 7.0 at 25° C.). Bacteria were suspended and diluted in antibiotic medium 3 to about 10^4 cfu/ml and used as the inoculum. Sample solutions (100 μl/well) were added to plates according to the plate layout. Inoculum (100 μl/well) was added to achieve a final concentration of 5×10^3 cfu/ml. Negative controls received 100 μl saline and 100 μl growth medium. Positive controls received 100 μl saline and 100 μl inoculum. Bacterial plates were incubated at 37° C. for 24 hours.
However, the data for Table 4 were obtained with a modified protocol wherein the medium was tryptic soy broth, inocolum strength was approximately 10^4 CFU per ml, and values determined were minimum bactericidal concentrations (MBC) or minimum fungicidal concentrations (MFC).
MBC or MFC values are in μg/mL. E. coli is Escherichia coli ATCC accession number 25922; P. aerug is Pseudomonas aeruginosa ATCC accession number 27853, S. aur. is Stapholococcus aureus ATCC accession number 25923; Candida is Candida albicans ATCC accession number 10231.

[4] = test system: Escherichia coli ATCC 25922; assay: as above; conditions: minimum bactericidal concentration, Table 4

## CC[C@H](C)[C@H](NC(=O)[C@H](CCCCN)NC(=O)[C@H](CCCCN)NC(=O)[C@H](Cc1ccccc1)NC(=O)[C@H](CC(C)C)NC(=O)[C@H](CCCCN)NC(=O)[C@H](Cc1c[nH]c2ccccc12)NC(=O)[C@@H](N)CCCCN)C(=O)NCC(=O)N[C@@H](C)C(=O)N[C@H](C(=O)N[C@@H](CC(C)C)C(=O)N[C@@H](CCCCN)C(=O)N[C@H](C(=O)N[C@@H](CC(C)C)C(N)=O)C(C)C)C(C)C [compound 53]
[1]
  MFC Candida A.10231: 30 µg/mL (≈ 16.9 µM)
[2]
  MBC S. aur A.25923: 10 µg/mL (≈ 5.65 µM)
[3]
  MBC P. aerug A.27853: 15 µg/mL (≈ 8.47 µM)
[4]
  MBC E. coli A.25922: 15 µg/mL (≈ 8.47 µM)

## CC(C)C[C@H](NC(=O)[C@H](CC(C)C)NC(=O)[C@H](CCCCN)NC(=O)[C@H](C)NC(=O)[C@H](CC(C)C)NC(=O)[C@H](C)NC(=O)[C@H](CCCCN)NC(=O)[C@H](CCCCN)NC(=O)[C@H](C)NC(=O)[C@H](CC(C)C)NC(=O)[C@H](CCCCN)NC(=O)[C@H](C)NC(=O)[C@@H](N)CCCCN)C(N)=O [compound 149]
[1]
  MFC Candida A.10231: 100 µg/mL (≈ 71.7 µM)
[2]
  MBC S. aur A.25923: >250 µg/mL
[3]
  MBC P. aerug A.27853: >250 µg/mL
[4]
  MBC E. coli A.25922: 150 µg/mL (≈ 108 µM)

## CC[C@H](C)[C@H](NC(=O)[C@H](C)NC(=O)[C@H](CCCNC(=N)N)NC(=O)[C@H](CC(C)C)NC(=O)CNC(=O)[C@@H](NC(=O)[C@H](C)NC(=O)[C@@H](N)Cc1ccccc1)C(C)C)C(=O)N[C@@H](CCCCN)C(=O)N[C@@H](CCCNC(=N)N)C(=O)N[C@@H](C)C(=O)N[C@@H](CC(C)C)C(=O)N[C@@H](CCCCN)C(=O)N[C@@H](CCCCN)C(=O)N[C@@H](CC(C)C)C(=O)N[C@@H](CCCNC(=N)N)C(=O)N[C@@H](CCCNC(=N)N)C(=O)NCC(=O)N[C@H](C(=O)N[C@@H](CCCNC(=N)N)C(=O)N[C@@H](CCCCN)C(=O)N[C@H](C(=O)N[C@@H](C)C(=O)N[C@@H](CCCCN)C(=O)N[C@@H](CC(=O)O)C(=O)N[C@@H](CC(C)C)C(N)=O)C(C)C)C(C)C [compound 157]
[1]
  MFC Candida A.10231: >250 µg/mL
[2]
  MBC S. aur A.25923: >250 µg/mL
[3]
  MBC P. aerug A.27853: >250 µg/mL
[4]
  MBC E. coli A.25922: 75 µg/mL (≈ 25.3 µM)

## FAKLLAKLAKKSL-NH2 [compound 127]
[1]
  MFC Candida A.10231: INACT
[2]
  MBC S. aur A.25923: INACT
[3]
  MBC P. aerug A.27853: INACT
[4]
  MBC E. coli A.25922: INACT

## CC(C)C[C@H](NC(=O)[C@H](CCCCN)NC(=O)[C@H](CC(C)C)NC(=O)[C@H](CCCCN)NC(=O)[C@H](CC(C)C)NC(=O)[C@H](C)NC(=O)[C@H](CCCCN)NC(=O)[C@H](C)NC(=O)[C@H](CC(C)C)NC(=O)[C@H](CC(C)C)NC(=O)[C@H](CCCCN)NC(=O)[C@H](C)NC(=O)[C@@H](N)Cc1ccccc1)C(N)=O [compound 101]
[1]
  MFC Candida A.10231: 40 µg/mL (≈ 27.5 µM)
[2]
  MBC S. aur A.25923: >50 µg/mL
[3]
  MBC P. aerug A.27853: >50 µg/mL
[4]
  MBC E. coli A.25922: 300 µg/mL (≈ 206 µM)

## CC(C)C[C@H](NC(=O)[C@H](C)NC(=O)[C@H](CC(C)C)NC(=O)[C@H](CCCCN)NC(=O)[C@H](C)NC(=O)[C@H](CC(C)C)NC(=O)[C@H](CCCCN)NC(=O)[C@H](CCCCN)NC(=O)[C@H](C)NC(=O)[C@H](CC(C)C)NC(=O)[C@H](CCCCN)NC(=O)[C@H](CCCCN)NC(=O)[C@H](C)NC(=O)[C@@H](N)Cc1ccccc1)C(N)=O [compound 45]
[1]
  MFC Candida A.10231: >50 µg/mL
[2]
  MBC S. aur A.25923: 80 µg/mL (≈ 51.9 µM)
[3]
  MBC P. aerug A.27853: 40 µg/mL (≈ 25.9 µM)
[4]
  MBC E. coli A.25922: 30 µg/mL (≈ 19.5 µM)

## CC[C@H](C)[C@H](NC(=O)CNC(=O)[C@H](CC(N)=O)NC(=O)[C@H](CCCNC(=N)N)NC(=O)[C@@H](NC(=O)[C@H](CC(N)=O)NC(=O)[C@H](CCCNC(=N)N)NC(=O)CNC(=O)[C@@H](NC(=O)[C@H](CCCCN)NC(=O)[C@H](CCC(=O)O)NC(=O)[C@@H](NC(=O)[C@H](CCCCN)NC(=O)[C@H](CCCCN)NC(=O)[C@H](Cc1ccccc1)NC(=O)[C@@H](NC(=O)[C@H](CCCCN)NC(=O)[C@H](Cc1c[nH]c2ccccc12)NC(=O)[C@H](CCCCN)NC(=O)[C@@H]1CCCN1C(=O)[C@@H](N)CCSC)C(C)C)[C@@H](C)CC)C(C)C)[C@@H](C)CC)C(=O)N[C@H](C(=O)N[C@@H](CCCCN)C(=O)N[C@@H](C)C(=O)NCC(=O)N1CCC[C@H]1C(=O)N[C@@H](C)C(=O)N[C@H](C(=O)N[C@@H](C)C(=O)N[C@H](C(=O)N[C@@H](CC(C)C)C(=O)NCC(=O)N[C@@H](CCC(=O)O)C(=O)N[C@@H](C)C(=O)N[C@@H](CCCCN)C(=O)N[C@@H](C)C(=O)N[C@@H](CC(C)C)C(=O)NCC(=O)O)C(C)C)[C@@H](C)CC)C(C)C [compound 5]
[2]
  MBC S. aur A.25923: 40 µg/mL (≈ 9.78 µM)
[3]
  MBC P. aerug A.27853: >60 µg/mL
[4]
  MBC E. coli A.25922: 50 µg/mL (≈ 12.2 µM)

## CC(C)C[C@H](NC(=O)[C@H](C)NC(=O)[C@H](CC(C)C)NC(=O)[C@H](C)NC(=O)[C@H](CCCCN)NC(=O)[C@H](CCCCN)NC(=O)[C@H](C)NC(=O)[C@H](CC(C)C)NC(=O)[C@H](CCCCN)NC(=O)[C@H](C)NC(=O)[C@H](CC(C)C)NC(=O)[C@H](CCCCN)NC(=O)[C@H](CCCCN)NC(=O)[C@H](C)NC(=O)[C@@H](N)Cc1ccccc1)C(N)=O [compound 39]
[2]
  MBC S. aur A.25923: >40 µg/mL
[3]
  MBC P. aerug A.27853: >40 µg/mL
[4]
  MBC E. coli A.25922: >40 µg/mL

## CC(C)C[C@H](NC(=O)[C@H](C)NC(=O)[C@H](CCCCN)NC(=O)[C@H](CCCCN)NC(=O)[C@H](C)NC(=O)[C@H](CCCCN)NC(=O)[C@H](CCCCN)NC(=O)[C@H](CC(C)C)NC(=O)[C@H](C)NC(=O)[C@H](CCCCN)NC(=O)[C@H](CCCCN)NC(=O)[C@H](C)NC(=O)[C@H](CC(C)C)NC(=O)[C@H](C)NC(=O)[C@@H](N)Cc1ccccc1)C(N)=O [compound 40]
[2]
  MBC S. aur A.25923: >40 µg/mL
[3]
  MBC P. aerug A.27853: 40 µg/mL (≈ 24.6 µM)
[4]
  MBC E. coli A.25922: 30 µg/mL (≈ 18.4 µM)

## CC[C@H](C)[C@H](NC(=O)CNC(=O)[C@H](CC(C)C)NC(=O)[C@H](CCCCN)NC(=O)[C@H](C)NC(=O)[C@H](CC(C)C)NC(=O)[C@H](C)NC(=O)[C@@H](NC(=O)[C@H](CCCCN)NC(=O)[C@H](C)NC(=O)[C@@H](NC(=O)[C@@H](N)CCCCN)[C@@H](C)CC)C(C)C)C(=O)NCC(=O)N[C@@H](C)C(=O)N[C@H](C(=O)N[C@@H](CC(C)C)C(=O)N[C@@H](CCCCN)C(=O)N[C@H](C(=O)N[C@@H](CC(C)C)C(=O)N[C@H](C(=O)N[C@H](C(=O)NCC(=O)N[C@@H](CC(C)C)C(N)=O)[C@@H](C)O)[C@@H](C)O)C(C)C)C(C)C [compound 105]
[1]
  MFC Candida A.10231: >50 µg/mL
[3]
  MBC P. aerug A.27853: >50 µg/mL
[4]
  MBC E. coli A.25922: 25 µg/mL (≈ 11 µM)

## CC(C)C[C@H](NC(=O)[C@H](C)NC(=O)[C@H](CCCCN)NC(=O)[C@H](C)NC(=O)[C@H](CC(C)C)NC(=O)[C@H](CCCCN)NC(=O)[C@H](CCCCN)NC(=O)[C@H](C)NC(=O)[C@H](CC(C)C)NC(=O)[C@H](CCCCN)NC(=O)[C@H](C)NC(=O)[C@H](CC(C)C)NC(=O)[C@H](CCCCN)NC(=O)[C@H](CCCCN)NC(=O)[C@H](C)NC(=O)[C@@H](N)Cc1ccccc1)C(N)=O [compound 109]
[1]
  MFC Candida A.10231: >50 µg/mL
[2]
  MBC S. aur A.25923: 80 µg/mL (≈ 45.9 µM)

## CC(C)C[C@H](NC(=O)[C@H](C)NC(=O)[C@H](CC(C)C)NC(=O)[C@H](CCCCN)NC(=O)[C@H](C)NC(=O)[C@H](CC(C)C)NC(=O)[C@H](CCCCN)NC(=O)[C@H](CCCCN)NC(=O)[C@H](CC(C)C)NC(=O)[C@H](CCCCN)NC(=O)[C@H](CCCCN)NC(=O)[C@H](C)NC(=O)[C@H](CC(C)C)NC(=O)[C@H](CCCCN)NC(=O)[C@H](CCCCN)NC(=O)[C@H](C)NC(=O)[C@@H](N)Cc1ccccc1)C(=O)N[C@@H](C)C(=O)N[C@@H](CCCCN)C(N)=O [compound 41]
[2]
  MBC S. aur A.25923: 40 µg/mL (≈ 19 µM)
[3]
  MBC P. aerug A.27853: 40 µg/mL (≈ 19 µM)
[4]
  MBC E. coli A.25922: 40 µg/mL (≈ 19 µM)

## CC[C@H](C)[C@H](NC(=O)[C@H](CC(N)=O)NC(=O)[C@H](CCCNC(=N)N)NC(=O)CNC(=O)[C@H](CCSC)NC(=O)[C@H](CCCCN)NC(=O)[C@H](CCC(=O)O)NC(=O)[C@@H](NC(=O)[C@H](CCCCN)NC(=O)[C@H](CC(C)C)NC(=O)[C@H](Cc1ccccc1)NC(=O)[C@@H](NC(=O)[C@H](CCCCN)NC(=O)[C@H](CCC(=O)O)NC(=O)[C@H](CCCCN)NC(=O)[C@@H]1CCCN1C(=O)[C@@H](N)CCSC)C(C)C)[C@@H](C)CC)C(=O)N[C@@H](CCCNC(=N)N)C(=O)N[C@@H](CC(N)=O)C(N)=O [compound 107]
[1]
  MFC Candida A.10231: >50 µg/mL
[2]
  MBC S. aur A.25923: >50 µg/mL
[3]
  MBC P. aerug A.27853: >50 µg/mL

## CC[C@H](C)[C@H](NC(=O)CNC(=O)[C@H](CC(N)=O)NC(=O)[C@H](CCCNC(=N)N)NC(=O)[C@@H](NC(=O)[C@H](CC(N)=O)NC(=O)[C@H](CCCNC(=N)N)NC(=O)CNC(=O)[C@@H](NC(=O)[C@H](CCCCN)NC(=O)[C@H](CCC(=O)O)NC(=O)[C@@H](NC(=O)[C@H](CCCCN)NC(=O)[C@H](CCCCN)NC(=O)[C@H](Cc1ccccc1)NC(=O)[C@@H](NC(=O)[C@H](CCCCN)NC(=O)[C@H](Cc1c[nH]c2ccccc12)NC(=O)[C@H](CCCCN)NC(=O)[C@@H]1CCCN1C(=O)[C@@H](N)CCSC)C(C)C)[C@@H](C)CC)C(C)C)[C@@H](C)CC)C(=O)N[C@H](C(=O)N[C@@H](CCCCN)C(=O)N[C@@H](C)C(=O)NCC(=O)N1CCC[C@H]1C(=O)N[C@@H](C)C(=O)N[C@H](C(=O)N[C@@H](C)C(=O)N[C@H](C(=O)N[C@@H](CC(C)C)C(=O)NCC(=O)N[C@@H](CCC(=O)O)C(=O)N[C@@H](C)C(=O)N[C@@H](CCCCN)C(=O)N[C@@H](C)C(=O)N[C@@H](CC(C)C)C(=O)NCC(N)=O)C(C)C)[C@@H](C)CC)C(C)C [compound 12]
[2]
  MBC S. aur A.25923: 75 µg/mL (≈ 18.3 µM)
[3]
  MBC P. aerug A.27853: >60 µg/mL
[4]
  MBC E. coli A.25922: 50 µg/mL (≈ 12.2 µM)

## CC(C)C[C@H](NC(=O)[C@H](CCCCN)NC(=O)[C@H](CCCCN)NC(=O)[C@H](C)NC(=O)[C@H](CC(C)C)NC(=O)[C@H](CCCCN)NC(=O)[C@H](C)NC(=O)[C@H](CC(C)C)NC(=O)[C@H](CCCCN)NC(=O)[C@H](CCCCN)NC(=O)[C@H](C)NC(=O)[C@@H](N)Cc1ccccc1)C(N)=O [compound 106]
[1]
  MFC Candida A.10231: >50 µg/mL
[3]
  MBC P. aerug A.27853: >50 µg/mL
[4]
  MBC E. coli A.25922: 50 µg/mL (≈ 36.8 µM)
